Measurements as given in ChEMBL document CHEMBL4342450, “Antitumor Activity of Ohmyungsamycin A through the Regulation of the Skp2-p27 Axis and MCM4 in Human Colorectal Cancer Cells” (J Nat Prod, 2020).
Activity calls are given as the source filed them. The calls are words filed in the database; no cut-off is given here. *1 amine or outer side, *2 acyl side, *3 side chain or, on linkers, in order; H or OH if unused. Where a SMILES comes first, the peptide text is derived from it. Bridges are numbered along the chain shown (N, C = ends). [ ]: non-standard residue; d: D form. Phe(3R-OH) = O=C([C@@H](N[*:1])[C@H](O[*:3])c1ccccc1)[*:2]; NMeTrp(4-OMe) = CN[C@@H](Cc1c[nH]c2cccc(OC)c12)C(=O)O; NMeT = CN[C@H](C(=O)O)[C@@H](C)O; NMeL = CN[C@@H](CC(C)C)C(=O)O; NMeV = CN[C@H](C(=O)O)C(C)C

Tests used:
HCT-116 [1] = test: Antiproliferative activity against human HCT116 cells after 72 hrs by sulforhodamine B assay; assay type: functional, cell-based
HCT-116 [2] = test: Downregulation of GINS2 gene expression in human HCT116 cells assessed as fold change at 15 uM incubated for 24 hrs by cDNA microarray analysis relative to control; assay type: functional
HCT-116 [3] = test: Downregulation of DKK1 gene expression in human HCT116 cells assessed as fold change at 15 uM incubated for 24 hrs by cDNA microarray analysis relative to control; assay type: functional
HCT-116 [4] = test: Induction of cell cycle arrest in human HCT116 cells assessed as accumulation at S phase at 5 uM incubated for 18 hrs by propidium iodide staining based flow cytometry (reference value: 26.8%); assay type: functional
HCT-116 [5] = test: Induction of cell cycle arrest in human HCT116 cells assessed as accumulation at sub-G1 phase at 10 uM incubated for 18 hrs by propidium iodide staining based flow cytometry (reference value: 0.9%); assay type: functional
HCT-116 [6] = test: Decrease in cell cycle associated protein expression in human HCT116 cells assessed as reduction in CDK6 expression at 5 to 20 uM after 24 hrs by Western blot analysis; assay type: functional, cell-based
HCT-116 [7] = test: Induction of cell cycle arrest in human HCT116 cells assessed as accumulation at S phase at 5 uM incubated for 24 hrs by propidium iodide staining based flow cytometry (reference value: 21.2%); assay type: functional
HCT-116 [8] = test: Induction of cell cycle arrest in human HCT116 cells assessed as accumulation at G2/M phase at 5 uM incubated for 24 hrs by propidium iodide staining based flow cytometry (reference value: 15.7%); assay type: functional
HCT-116 [9] = test: Induction of cell cycle arrest in human HCT116 cells assessed as accumulation at G0/G1 phase at 10 uM incubated for 24 hrs by propidium iodide staining based flow cytometry (reference value: 54.7%); assay type: functional
HCT-116 [10] = test: Induction of apoptosis in human HCT116 cells assessed as reduction in Bid level at 5 to 20 uM after 24 hrs by Western blot analysis; assay type: functional, cell-based
HCT-116 [11] = test: Antitumor activity against human HCT116 cells xenografted in BALB/c nude mouse assessed as tumor weight at 5 mg/kg, ip administered thrice a week for 3.5 weeks measured on last day (reference value: 100%); assay type: functional
Mus musculus [12] = test: In vivo modulation of MCM4 in tumor of BALB/c nude mouse xenografted with human HCT116 cells assessed as downregulation of MCM4 mRNA level at 5 to 10 m/kg, ip administered thrice a week for 3.5 weeks by RT-PCR method; assay type: functional, organism-based
Mus musculus [13] = test: In vivo modulation of Skp2-p27 axis in tumor of BALB/c nude mouse xenografted with human HCT116 cells assessed as upregulation of p27 level at 5 to 10 m/kg, ip administered thrice a week for 3.5 weeks by Western blot analysis; assay type: functional, organism-based

IC50 (HCT-116 [1]; HCT-116, 72 h): 7.61 µM
Structure (SMILES): CN[C@H](C(=O)N[C@H](C(=O)N[C@@H]1C(=O)N(C)[C@@H]([C@@H](C)O)C(=O)N[C@@H](C(C)C)C(=O)N(C)[C@@H](CC(C)C)C(=O)N[C@@H](C(C)C)C(=O)N(C)[C@@H](C(C)C)C(=O)N(C)[C@@H](Cc2c[nH]c3cccc(OC)c23)C(=O)N[C@@H](C(C)C)C(=O)N[C@@H]([C@H](O)c2ccccc2)C(=O)N[C@@H](C(C)C)C(=O)O[C@@H]1C)C(C)C)C(C)C (H-[NMeV]VT[NMeT]V[NMeL]V[NMeV][NMeTrp(4-OMe)]V[Phe(3R-OH)]V; ester 3-C)
inhibition (HCT-116 [1]): Dose-dependent effect
fold change (FC) (HCT-116 [2]): 7.45
fold change (FC) (HCT-116 [3]): 4.144
Activity (HCT-116 [4]): 27.5%
Activity (HCT-116 [5]): 1.8%
inhibition (HCT-116 [6]): Active
Activity (HCT-116 [7]): 5.6%
Activity (HCT-116 [8]): 12.5%
Activity (HCT-116 [9]): 62.7%
Activity (HCT-116 [10]): Active
Activity (HCT-116 [11]): 70.3%
inhibition (Mus musculus [12]): Active
Activity (Mus musculus [13]): Active
